Measured values: article PMC8214221, “Sequence determinants in the cathelicidin LL-37 that promote inflammation via presentation of RNA to scavenger receptors” (The Journal of Biological Chemistry, 2021)
Residues, ends and D or L forms follow the SMILES beside them.

Columns and labels:
[1] = test system: S. aureus strain USA300 and SA112, GAS; experiment: Bacterial growth inhibition (OD600), Gram-positive strains; format: cell-based, Staphylococcus aureus; group A Streptococcus; conditions: 0-50 µM overnight, OD 600, n = 3, S. aureus USA300, SA113 (SA112 in text)
Experimental: We further looked at mRNA abundance by quantitative RT-PCR (qRT-PCR) to evaluate gene expression for type 1 interferon IFNB1, chemokine CXCL10, and cytokines TSLP and IL6 in NHEKs treated with selected LL-34 parent, LL-34—F5A, I24A, F27A, and L31A—peptides either alone or in combination with U1 dsRNA for 18 h (Fig. 1, E–H).
Methicillin-resistant S. aureus USA300 and methicillin-sensitive S. aureus SA113 (American Type Culture Collection 35556) were cultured in 3% tryptic soy broth overnight at 37 °C with shaking at 250 rpm. GAS M49 strain NZ131 was cultured in Todd Hewitt broth supplemented with 1% yeast extract overnight at 37 °C without shaking. E. coli R1 strain RS218 was cultured in LB broth overnight at 37 °C with shaking at 250 rpm. MIC values were determined using a round-bottom 96-well microdilution method with RPMI cell culture media (as a source of Ca^2+ and Mg^2+) supplemented with tryptic soy broth, Todd Hewitt broth/yeast extract, or LB to facilitate growth of the respective bacterial strains. Overnight bacterial cultures were subcultured into fresh broth and grown to midlate log phase indicated by an absorbance at 600 nm value between 0.8 and 1.0 for each bacterial strain. The absorbance was then normalized to provide a concentration of 1 × 10^7 colony-forming units/ml in RPMI medium. The LL-34 parent and alanine scan mutants were serially diluted into the 96-well microtiter plates containing prewarmed RPMI bacterial growth medium. A 10 μl aliquot of the midlate log phase bacteria was inoculated into the 96-well microtiter plates that contained 95 μl of RPMI medium with or without the LL-34 peptide dilutions and incubated for 16 to 18 h at […] with shaking at 200 rpm. Inhibition of growth was determined by measuring the absorbance at 600 nm readings of each well using a microplate reader (Infinite M200 Pro; Tecan). The MIC of each bacterial strain was determined by the lowest peptide concentration that inhibited more than 80% bacterial growth.
(A) NHEKs and HDMECs (B) were treated with LL34- parent peptide and all the 34 alanine substituted peptides (Pep L1A-Pep R34A) and LL37 at 2 µM for 16 h. IL-6 protein secretion was assessed with ELISA (n=3) (C-F) LL34-Parent, LL34 F5A, LL34 I24A, LL34 F27A, and LL34 L31A peptides were incubated with S. aureus USA 300, S. aureus SA113, Group A Streptococcus (GAS) and E. coli at increasing concentrations (0-50 µM) overnight, and bacterial culture growth was assayed as absorbance at OD 600 (n=3).

[2] = test system: TBK1 and IRF7 phosphorylation in NHEKs; experiment: Immunoblot of MAVS pathway signaling in NHEKs; format: cell-based, human; conditions: U1 dsRNA 2.5 μg/ml + peptide 2 μM, in comparison to U1 + LL-34 parent
From the text: RNA-Seq was utilized to obtain a global transcriptomic profile and map unique immune pathways in NHEKs exposed to U1 dsRNA, LL-34 parent, Pep I24A, Pep L31A, and a combination of U1 dsRNA and LL-34 parent, Pep I24A, or Pep L31A. […] Similarly, 448 and 325 unique differentially regulated genes were observed after U1 + I24A and U1 + L31A treatments, respectively (Fig. 3, A and B and Fig. S2, A and B). […] These pathways included type 1 interferon signaling, cytokine signaling, response to external biotic stimulus, and cytokine-mediated signaling pathway. […] We verified the repression of mitochondrial antiviral signaling (MAVS) with immunoblot analysis. […]
Figure 3 LL-34 I24A and L31A mutations result in loss of innate immune vetting of U1 dsRNA leading to repressed activation of antiviral and innate immune pathways.A, Venn diagram for all differentially expressed genes from NHEKs treated with U1 dsRNA, LL-34-parent, and combinations of either U1 dsRNA and LL-34-parent. […] Protein expression of p-TBK1, TBK1, p-IRF7, IRF7, p-Akt, Akt, p-ERK1/2, and ERK1/2 was assessed with immunoblot. […]
Cells were lysed in complete radioimmunoprecipitation assay buffer with added 1× protease and Phosphatase Inhibitor Cocktail (Life Technologies). […] Total protein was quantified for each treatment with Bio-Rad Protein Assay (Bio-Rad). […]

Structure (SMILES) | Capacity to inhibit growth of Gram-positive bacteria [1] | Phosphorylation of TBK1 and IRF7 [2]
CC[C@H](C)[C@H](NC(=O)[C@H](CCCCN)NC(=O)[C@H](CCC(=O)O)NC(=O)[C@H](CCCCN)NC(=O)[C@H](CO)NC(=O)[C@H](CCCCN)NC(=O)[C@H](CCCNC(=N)N)NC(=O)[C@H](Cc1ccccc1)NC(=O)[C@H](Cc1ccccc1)NC(=O)[C@H](CC(=O)O)NC(=O)CNC(=O)[C@H](CC(C)C)NC(=O)[C@@H](N)CC(C)C)C(=O)NCC(=O)N[C@@H](CCCCN)C(=O)N[C@@H](CCC(=O)O)C(=O)N[C@@H](Cc1ccccc1)C(=O)N[C@@H](CCCCN)C(=O)N[C@@H](CCCNC(=N)N)C(=O)N[C@H](C(=O)N[C@H](C(=O)N[C@@H](CCC(N)=O)C(=O)N[C@@H](CCCNC(=N)N)C(=O)N[C@H](C(=O)N[C@@H](CCCCN)C(=O)N[C@@H](CC(=O)O)C(=O)N[C@@H](Cc1ccccc1)C(=O)N[C@@H](CC(C)C)C(=O)N[C@@H](CCCNC(=N)N)C(=O)N[C@@H](CC(N)=O)C(=O)N[C@@H](C)C(=O)N[C@H](C(=O)N1CCC[C@H]1C(=O)N[C@@H](CCCNC(=N)N)C(=O)O)C(C)C)[C@@H](C)CC)C(C)C)[C@@H](C)CC [LL-34—L31A] (H-LLGDFFRKSKEKIGKEFKRIVQRIKDFLRNAVPR-OH) | increased capacity to inhibit growth of most of the tested Gram-positive bacteria | Decreased phosphorylation
CC[C@H](C)[C@H](NC(=O)[C@H](CCCCN)NC(=O)[C@H](CCC(=O)O)NC(=O)[C@H](CCCCN)NC(=O)[C@H](CO)NC(=O)[C@H](CCCCN)NC(=O)[C@H](CCCNC(=N)N)NC(=O)[C@H](Cc1ccccc1)NC(=O)[C@H](Cc1ccccc1)NC(=O)[C@H](CC(=O)O)NC(=O)CNC(=O)[C@H](CC(C)C)NC(=O)[C@@H](N)CC(C)C)C(=O)NCC(=O)N[C@@H](CCCCN)C(=O)N[C@@H](CCC(=O)O)C(=O)N[C@@H](Cc1ccccc1)C(=O)N[C@@H](CCCCN)C(=O)N[C@@H](CCCNC(=N)N)C(=O)N[C@H](C(=O)N[C@H](C(=O)N[C@@H](CCC(N)=O)C(=O)N[C@@H](CCCNC(=N)N)C(=O)N[C@@H](C)C(=O)N[C@@H](CCCCN)C(=O)N[C@@H](CC(=O)O)C(=O)N[C@@H](Cc1ccccc1)C(=O)N[C@@H](CC(C)C)C(=O)N[C@@H](CCCNC(=N)N)C(=O)N[C@@H](CC(N)=O)C(=O)N[C@@H](CC(C)C)C(=O)N[C@H](C(=O)N1CCC[C@H]1C(=O)N[C@@H](CCCNC(=N)N)C(=O)O)C(C)C)C(C)C)[C@@H](C)CC [LL-34—I24A] (H-LLGDFFRKSKEKIGKEFKRIVQRAKDFLRNLVPR-OH) | increased capacity to inhibit growth of most of the tested Gram-positive bacteria | Decreased phosphorylation
